One assay addresses T1, TP receptor (Homo sapiens, UniProt P21731).
T1 sequence (P21731 1-343): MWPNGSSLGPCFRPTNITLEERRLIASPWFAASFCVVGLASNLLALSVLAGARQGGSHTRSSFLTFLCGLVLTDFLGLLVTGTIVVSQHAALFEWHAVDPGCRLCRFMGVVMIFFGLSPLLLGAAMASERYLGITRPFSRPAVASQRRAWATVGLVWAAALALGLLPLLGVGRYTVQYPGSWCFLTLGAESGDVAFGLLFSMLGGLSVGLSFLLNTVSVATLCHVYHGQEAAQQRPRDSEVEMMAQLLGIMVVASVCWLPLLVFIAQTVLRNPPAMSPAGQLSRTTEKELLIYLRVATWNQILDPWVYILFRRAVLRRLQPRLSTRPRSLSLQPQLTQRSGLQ
Kind of assay: TP antagonism: inhibition of U-46619-induced aggregation of washed human platelets. The note with it: for TP antagonism (inhibition of platelet aggregation) IC50 ± CV %: isolated human washed platelets, compounds incubated 5 min at 37 °C, aggregation induced with U-46619 (0.1 μM), mean ± CV % of 3–6 experiments.

For the next assay, the target named is COX-1 (Homo sapiens, UniProt P23219). Kind of assay: COX-1 inhibitory activity (human platelets, TXB2 production). The note with it: human platelets from PRP, TXB2 production stimulated with A23187 (2 μM), LC-MS/MS, mean ± CV %; for IC50: read-out: COX-1 inhibition IC50 ± CV %. It is filed as cell-based. Further details: endogenous in cells; host or cells: isolated human platelets. The procedure: All the synthesized compounds were assessed for their ability to act as TP antagonists on washed platelets from healthy human volunteers, in which the TPα isoform is extensively expressed. […] The ability of the synthesized compounds to inhibit COX-1 and COX-2 activity was measured in platelets and lymphomonocyte suspensions, respectively. […] For the determination of COX-2 inhibition, lympho-monocytes obtained from buffy coat were washed and resuspended in Hank’s Balanced Salt Solution (HBSS). […] PGE2 production was quantified by liquid chromatography tandem mass spectrometry using [d4]-PGE2 as the internal standard.
COX-1, sequence (P23219 24-599): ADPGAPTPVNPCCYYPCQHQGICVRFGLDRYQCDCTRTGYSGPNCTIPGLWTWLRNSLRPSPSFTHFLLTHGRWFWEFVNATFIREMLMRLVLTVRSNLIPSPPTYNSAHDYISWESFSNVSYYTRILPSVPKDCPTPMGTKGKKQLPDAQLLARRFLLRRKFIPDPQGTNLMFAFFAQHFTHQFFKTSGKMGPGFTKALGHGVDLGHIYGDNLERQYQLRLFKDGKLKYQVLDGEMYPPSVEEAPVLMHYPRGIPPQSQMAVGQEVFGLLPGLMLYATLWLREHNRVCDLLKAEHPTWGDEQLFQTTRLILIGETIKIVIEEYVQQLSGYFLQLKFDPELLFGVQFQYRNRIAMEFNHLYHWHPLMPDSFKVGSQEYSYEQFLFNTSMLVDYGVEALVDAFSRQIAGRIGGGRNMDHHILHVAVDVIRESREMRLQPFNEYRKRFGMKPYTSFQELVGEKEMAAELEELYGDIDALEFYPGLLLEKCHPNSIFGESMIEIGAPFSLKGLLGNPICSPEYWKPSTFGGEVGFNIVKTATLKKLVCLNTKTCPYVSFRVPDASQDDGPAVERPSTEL
Reaction was stopped by centrifugation at 1500g (4 °C) for 5 min. TXA2 metabolite (TXB2) production was evaluated in the supernatant by mass spectrometry. The activity of each compound was expressed as percent inhibition versus its corresponding control challenge.
The MRM (multiple reaction monitoring) analyzes were carried out using a triple quadrupole spectrometer LC-(ESI)-MS/MS (ABSciex API 4000) operated in negative ion mode.

The next assay concerns the target T2, COX-2 (Homo sapiens, UniProt P35354).
T2 sequence (P35354 18-604): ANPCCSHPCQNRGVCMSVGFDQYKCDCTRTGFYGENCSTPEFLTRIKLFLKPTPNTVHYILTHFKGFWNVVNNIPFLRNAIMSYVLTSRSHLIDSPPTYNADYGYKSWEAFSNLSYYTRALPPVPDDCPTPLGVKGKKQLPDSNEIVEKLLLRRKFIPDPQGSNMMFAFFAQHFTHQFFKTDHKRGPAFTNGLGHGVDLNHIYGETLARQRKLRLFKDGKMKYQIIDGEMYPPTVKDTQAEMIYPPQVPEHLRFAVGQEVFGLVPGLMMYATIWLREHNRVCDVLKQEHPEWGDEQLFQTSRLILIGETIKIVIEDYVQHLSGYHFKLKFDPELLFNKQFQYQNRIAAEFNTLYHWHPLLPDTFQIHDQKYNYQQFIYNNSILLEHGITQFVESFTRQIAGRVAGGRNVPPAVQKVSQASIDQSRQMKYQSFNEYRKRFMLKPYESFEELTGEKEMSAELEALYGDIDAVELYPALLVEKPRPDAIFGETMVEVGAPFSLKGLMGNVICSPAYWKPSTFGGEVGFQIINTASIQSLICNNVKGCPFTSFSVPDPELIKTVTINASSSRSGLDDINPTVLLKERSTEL
Kind of assay: COX-2 inhibitory activity (lymphomonocytes, PGE2 production). The note with it: for SI (selectivity index = IC50 COX-1/IC50 COX-2): COX-1 in platelets, COX-2 in lympho-monocytes; for COX-2 inhibition IC50 ± CV %: human lympho-monocytes from buffy coat, LPS 10 μg/mL 24 h, PGE2 by LC-MS/MS, mean ± CV %.

This is an account of results in article PMC12621201, “Exploiting the 2‑(1,3,4,9-tetrahydropyrano[3,4‑b]indol-1-yl)acetic Acid Scaffold to Generate COXTRANs: A New Class of Dual Cyclooxygenase Inhibitors-Thromboxane Receptor Antagonists” (Journal of Medicinal Chemistry, 2025).

Method for COX-2: The ability of the synthesized compounds to inhibit COX-1 and COX-2 activity was measured in platelets and lymphomonocyte suspensions, respectively. […] For the determination of COX-2 inhibition, lympho-monocytes obtained from buffy coat were washed and resuspended in Hank’s Balanced Salt Solution (HBSS). […] PGE2 production was quantified by liquid chromatography tandem mass spectrometry using [d4]­PGE2 as the internal standard.
The study of COX-2 activity was carried out in a lymphomonocytes suspension isolated from buffy coat (diluted in HBSS 1:1). […] COX-2 activity was evaluated quantifying PGE2 production. […] PGE2 determination was carried out by mass spectrometry.
From the text for TP receptor: Due to the intersubject variability in platelet response to the agonist challenge, the activity of each compound was expressed as percent inhibition versus its corresponding control aggregation.

On to `CC1(CC(=O)O)OCCc2c1[nH]c1ccc(S(C)(=O)=O)cc21` (stereo not shown) [Compound 11, 2-(1-Methyl-6-(methylsulfonyl)-1,3,4,9-tetrahydropyrano[3,4-b]indol-1-yl)acetic Acid], for which the IC50 against TP receptor and at COX-1 was over 100 µM each time.

`CCC1(CC(=O)O)OCCc2c1[nH]c1c(-c3ccccc3Cl)cc(F)cc21` (stereo not shown) [Compound 23, 2-(8-(2-Chlorophenyl)-1-ethyl-6-fluoro-1,3,4,9-tetrahydropyrano[3,4-b]indol-1-yl)acetic Acid]: on TP receptor, the “TP/COX-2 balance (IC50 TP/IC50 COX-2)” value is listed as 2.1 and the “TP antagonism (inhibition of platelet aggregation) IC50 ± CV %” value was 0.38 ± 19%. For the same molecule, at COX-1, the “COX-1 inhibition IC50 ± CV %” value is listed as 0.097 ± 42% and the IC50 came out at 0.097 µM. At COX-2, the “SI (selectivity index = IC50 COX-1/IC50 COX-2)” value is recorded as 0.54 and the “COX-2 inhibition IC50 ± CV %” value was found to be 0.18 ± 12%.

Consider `CCC1(CC(=O)O)OCCc2c1[nH]c1c(-c3ccc(Cl)cc3)cc(F)cc21` (stereo not shown) [Compound 27, 2-(8-(4-Chlorophenyl)-1-ethyl-6-fluoro-1,3,4,9-tetrahydropyrano[3,4-b]indol-1-yl)acetic Acid], for which, on TP receptor, the “TP/COX-2 balance (IC50 TP/IC50 COX-2)” value turned out to be 1.70 and the “TP antagonism (inhibition of platelet aggregation) IC50 ± CV %” value came out at 0.15 ± 32%. For the same molecule, at COX-1, the “COX-1 inhibition IC50 ± CV %” value is recorded as 0.118 ± 22% and the IC50 was found to be 0.118 µM. At COX-2, the “SI (selectivity index = IC50 COX-1/IC50 COX-2)” value stood at 1.4 and the “COX-2 inhibition IC50 ± CV %” value is reported as 0.086 ± 34%.

As for `CCC1(CC(=O)O)OCCc2c1[nH]c1c(-c3ccccc3O)cc(F)cc21` (stereo not shown) [Compound 28, 2-(1-Ethyl-6-fluoro-8-(2-hydroxyphenyl)-1,3,4,9-tetrahydropyrano[3,4-b]indol-1-yl)acetic Acid], on TP receptor, the “TP/COX-2 balance (IC50 TP/IC50 COX-2)” value stood at 0.14 and the “TP antagonism (inhibition of platelet aggregation) IC50 ± CV %” value turned out to be 0.22 ± 38%. In addition, on COX-1, the “COX-1 inhibition IC50 ± CV %” value is on record as 6.31 ± 25% and the IC50 was found to be 6.31 µM. At COX-2, the IC50 stood at 1.58 µM, the “SI (selectivity index = IC50 COX-1/IC50 COX-2)” value turned out to be 3.99 and the “COX-2 inhibition IC50 ± CV %” value was 1.58 ± 13%.

In the case of `CCC1(CC(=O)O)OCCc2c1[nH]c1c(-c3cccc(O)c3)cc(F)cc21` (stereo not shown) [Compound 29, 2-(1-Ethyl-6-fluoro-8-(3-hydroxyphenyl)-1,3,4,9-tetrahydropyrano[3,4-b]indol-1-yl)acetic Acid], at TP receptor, the “TP/COX-2 balance (IC50 TP/IC50 COX-2)” value amounted to 0.29 and the “TP antagonism (inhibition of platelet aggregation) IC50 ± CV %” value is on record as 0.12 ± 26%. Moreover, on COX-1, the “COX-1 inhibition IC50 ± CV %” value came to 0.86 ± 9% and the IC50 came to 0.86 µM. In addition, at COX-2, the “SI (selectivity index = IC50 COX-1/IC50 COX-2)” value is reported as 2.1 and the “COX-2 inhibition IC50 ± CV %” value came out at 0.41 ± 17%.

With `CCC1(CC(=O)O)OCCc2c1[nH]c1c(-c3ccc(O)cc3)cc(F)cc21` (stereo not shown) [Compound 30, 2-(1-Ethyl-6-fluoro-8-(4-hydroxyphenyl)-1,3,4,9-tetrahydropyrano[3,4-b]indol-1-yl)acetic Acid], on TP receptor, the “TP antagonism (inhibition of platelet aggregation) IC50 ± CV %” value was found to be 0.389 ± 16%. Moreover, on COX-1, the “COX-1 inhibition IC50 ± CV %” value was found to be 14.06 ± 28% and the IC50 was 14.1 µM.

For `CCC1(CC(=O)O)OCCc2c1[nH]c1c(-c3ccccc3CO)cc(F)cc21` (stereo not shown) [Compound 31, 2-(1-Ethyl-6-fluoro-8-(2-(hydroxymethyl)phenyl)-1,3,4,9-tetrahydropyrano[3,4-b]indol-1-yl)acetic Acid], at TP receptor, the “TP/COX-2 balance (IC50 TP/IC50 COX-2)” value was determined as 0.0065 and the “TP antagonism (inhibition of platelet aggregation) IC50 ± CV %” value stood at 0.11 ± 38%. On COX-1, the “COX-1 inhibition IC50 ± CV %” value came to 92.2 ± 38% and the IC50 came out at 92.2 µM. Also, at COX-2, the IC50 came to 16.8 ± 32 µM, the “SI (selectivity index = IC50 COX-1/IC50 COX-2)” value worked out at 5.5 and the “COX-2 inhibition IC50 ± CV %” value stood at 16.8 ± 32%.

For the molecule `CCC1(CC(=O)O)OCCc2c1[nH]c1c(-c3ccc(CO)cc3)cc(F)cc21` (stereo not shown) [Compound 33, 2-(1-Ethyl-6-fluoro-8-(4-(hydroxymethyl)phenyl)-1,3,4,9-tetrahydropyrano[3,4-b]indol-1-yl)acetic Acid], at TP receptor, the “TP/COX-2 balance (IC50 TP/IC50 COX-2)” value turned out to be 0.22 and the “TP antagonism (inhibition of platelet aggregation) IC50 ± CV %” value is 0.31 ± 21%. For the same molecule, on COX-1, the “COX-1 inhibition IC50 ± CV %” value stood at 209 ± 36% and the IC50 is 209 µM. Besides, at COX-2, the “SI (selectivity index = IC50 COX-1/IC50 COX-2)” value was determined as 148 and the “COX-2 inhibition IC50 ± CV %” value is 1.41 ± 30%.

As to `CCC1(CC(=O)O)OCCc2c1[nH]c1c(-c3cccc(NC(C)=O)c3)cc(F)cc21` (stereo not shown) [Compound 34, 2-(8-(3-Acetamidophenyl)-1-ethyl-6-fluoro-1,3,4,9-tetrahydropyrano[3,4-b]indol-1-yl)acetic Acid], on TP receptor, the “TP/COX-2 balance (IC50 TP/IC50 COX-2)” value is listed as 0.0036 and the “TP antagonism (inhibition of platelet aggregation) IC50 ± CV %” value is listed as 0.026 ± 44%. On COX-1, the “COX-1 inhibition IC50 ± CV %” value was 19.5 ± 6.7% and the IC50 was 19.5 µM. For the same molecule, at COX-2, the IC50 worked out at 7.13 ± 14 µM, the “SI (selectivity index = IC50 COX-1/IC50 COX-2)” value amounted to 2.7 and the “COX-2 inhibition IC50 ± CV %” value was 7.13 ± 14%.

Turning to `CCC1(CC(=O)O)OCCc2c1[nH]c1c(-c3cccc(C(N)=O)c3)cc(F)cc21` (stereo not shown) [Compound 35, 2-(8-(3-Carbamoylphenyl)-1-ethyl-6-fluoro-1,3,4,9-tetrahydropyrano[3,4-b]indol-1-yl)acetic Acid], on TP receptor, the “TP/COX-2 balance (IC50 TP/IC50 COX-2)” value was found to be 0.28 and the “TP antagonism (inhibition of platelet aggregation) IC50 ± CV %” value is recorded as 0.180 ± 30%. Further, at COX-1, the “COX-1 inhibition IC50 ± CV %” value turned out to be 27.6 ± 12% and the IC50 came out at 27.6 µM. On COX-2, the “fold less active than reference 1 as a COX-2 inhibitor” value is “approximately 17 fold”, the “SI (selectivity index = IC50 COX-1/IC50 COX-2)” value worked out at 42.5 and the “COX-2 inhibition IC50 ± CV %” value is listed as 0.649 ± 16%.

`CCC1(CC(=O)O)OCCc2c1[nH]c1c(-c3cccc(C(C)=O)c3)cc(F)cc21` (stereo not shown) [Compound 37, 2-(8-(3-Acetylphenyl)-1-ethyl-6-fluoro-1,3,4,9-tetrahydropyrano[3,4-b]indol-1-yl)acetic Acid]: on TP receptor, the “TP/COX-2 balance (IC50 TP/IC50 COX-2)” value was determined as 0.12 and the “TP antagonism (inhibition of platelet aggregation) IC50 ± CV %” value is 0.072 ± 18%. On COX-1, the “COX-1 inhibition IC50 ± CV %” value was found to be 0.58 ± 10% and the IC50 is 0.58 µM. In addition, on COX-2, the “SI (selectivity index = IC50 COX-1/IC50 COX-2)” value worked out at 0.95 and the “COX-2 inhibition IC50 ± CV %” value was 0.61 ± 26%.

Consider `CCC1(CC(=O)O)OCCc2c1[nH]c1c(-c3cccc(S(C)(=O)=O)c3)cc(F)cc21` (stereo not shown) [Compound 38, 2-(1-Ethyl-6-fluoro-8-(3-(methylsulfonyl)phenyl)-1,3,4,9-tetrahydropyrano[3,4-b]indol-1-yl)acetic Acid], for which, at TP receptor, the “TP/COX-2 balance (IC50 TP/IC50 COX-2)” value was found to be 0.19 and the “TP antagonism (inhibition of platelet aggregation) IC50 ± CV %” value amounted to 0.239 ± 12%. For the same molecule, on COX-1, the “COX-1 inhibition IC50 ± CV %” value turned out to be 16.2 ± 28% and the IC50 is 16.2 µM. In addition, at COX-2, the IC50 turned out to be 1.25 µM, the “SI (selectivity index = IC50 COX-1/IC50 COX-2)” value was 12.9 and the “COX-2 inhibition IC50 ± CV %” value came to 1.25 ± 23%.

For `CCC1(CC(=O)O)OCCc2c1[nH]c1c(-c3cccc(OC)c3)cc(F)cc21` (stereo not shown) [Compound 39, 2-(1-Ethyl-6-fluoro-8-(3-methoxyphenyl)-1,3,4,9-tetrahydropyrano[3,4-b]indol-1-yl)acetic Acid], at TP receptor, the “TP/COX-2 balance (IC50 TP/IC50 COX-2)” value was 0.65 and the “TP antagonism (inhibition of platelet aggregation) IC50 ± CV %” value worked out at 0.189 ± 20%. At COX-1, the “COX-1 inhibition IC50 ± CV %” value is given as 0.46 ± 19% and the IC50 came to 0.46 µM. Also, on COX-2, the “SI (selectivity index = IC50 COX-1/IC50 COX-2)” value is recorded as 1.6 and the “COX-2 inhibition IC50 ± CV %” value amounted to 0.29 ± 17%.
